Drawing on patent US9776964B2, “Phenoxyethyl cyclic amine derivatives and their activity as EP4 receptor modulators” (Eli Lilly and Company, priority 2013, dated 2017), this text covers Ki and IC50 for one compound.

Usually Ki stands for the dissociation constant of the complex between target and ligand, obtained from inhibition or displacement. The term IC50 denotes the concentration at which inhibition is half-maximal.

Assay [1] has as its target T1, human EP1 (Homo sapiens, UniProt P34995).
T1 construct: expressed in transfected cells
T1 sequence (P34995 1-402): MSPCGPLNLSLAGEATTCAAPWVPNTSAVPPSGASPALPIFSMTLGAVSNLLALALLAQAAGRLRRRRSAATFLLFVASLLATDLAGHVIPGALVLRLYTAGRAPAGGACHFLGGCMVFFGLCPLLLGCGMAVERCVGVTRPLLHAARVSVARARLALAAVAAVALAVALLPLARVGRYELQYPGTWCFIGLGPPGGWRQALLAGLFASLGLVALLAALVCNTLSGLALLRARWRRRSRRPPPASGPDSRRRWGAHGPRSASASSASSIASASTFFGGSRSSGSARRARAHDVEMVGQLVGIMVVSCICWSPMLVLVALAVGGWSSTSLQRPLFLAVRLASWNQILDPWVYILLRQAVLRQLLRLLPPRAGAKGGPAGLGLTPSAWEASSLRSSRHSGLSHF
Kind of assay: In vitro binding to human EP1 ([3H]-PGE2 displacement, membranes). The conditions noted are these: HEK293 membranes, n = 1, read-out: hEP1, Ki. How it is done: (§1) hEP1 and hEP4 membranes are prepared from recombinant HEK293 cells stably expressing human EP1 (Genbank accession number AY275470) or EP4 (Genbank accession number AY429109) receptors. hEP2 and hEP3 membranes are prepared from HEK293 cells transiently transfected with EP2 (Genbank accession number AY275471) or EP3 (isoform VI: Genbank accession number AY429108) receptor plasmids. Frozen cell pellets are homogenized in homogenization buffer using a Teflon/glass homogenizer. Membrane protein is aliquoted and quick frozen on dry ice prior to storage at −80° C. […]
(§2) Kd values for [3H]-PGE2 binding to each receptor are determined by saturation binding studies or homologous competition. […] Nonspecific binding is calculated by comparing binding in the presence and absence of 2 μM of PGE2. The membranes are harvested by filtration (TomTek harvester), washed 4 times with cold buffer (10 mM MES pH 6.0 with KOH, 10 mM MgCl2), dried in a 60° C. oven, and the radioactivity is quantified as counts per minute (CPM) using a TopCount detector. Percent specific binding is calculated as the percent of the binding in the absence of any inhibitor, corrected for binding in the presence of 2 uM of PGE2. […] Results are expressed as the geometric mean±standard deviation; n=number of independent determinations. The standard deviation is calculated by the delta method, being SDlog Ki×geometric mean×ln(10).

The target of assay [2] is T2, human EP3 (isoform VI) (Homo sapiens, UniProt P43115).
T2 sequence (P43115 1-359): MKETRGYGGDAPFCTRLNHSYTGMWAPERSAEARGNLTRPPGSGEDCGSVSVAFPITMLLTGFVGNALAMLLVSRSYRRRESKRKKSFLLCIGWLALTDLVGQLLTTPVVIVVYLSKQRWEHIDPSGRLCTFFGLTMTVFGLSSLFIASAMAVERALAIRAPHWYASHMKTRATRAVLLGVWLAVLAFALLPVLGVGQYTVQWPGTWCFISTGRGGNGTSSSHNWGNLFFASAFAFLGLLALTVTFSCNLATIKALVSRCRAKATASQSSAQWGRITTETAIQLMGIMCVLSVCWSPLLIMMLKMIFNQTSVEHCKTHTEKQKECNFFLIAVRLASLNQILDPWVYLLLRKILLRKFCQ
The assay is described as follows: In vitro binding to human EP3 ([3H]-PGE2 displacement, membranes). How it is done: as §1, §2

Assay [3] addresses T3, human EP4 (Homo sapiens, UniProt P35408). The assay is described as follows: In vitro human EP4 functional antagonist activity (inhibition of PGE2-stimulated cAMP production, HTRF). It is filed as cell-based. More on the design: expressed in transfected cells. The conditions noted are these: HEK293 cells expressing human EP4, EC80 of PGE2 (0.188 nM); geometric mean ± SD, n=6; read-out: IC50 measured at human EP4 (PGE2-stimulated cAMP production). As to the method: Assays are conducted in recombinant HEK293 cells stably expressing human EP4 receptor. The cell lines are maintained by culturing in DMEM with high glucose and pyridoxine hydrochloride (Invitrogen) supplemented with 10% fetal bovine serum (FBS), 1 mM sodium pyruvate, 10 mM HEPES, […] and 2 mM L-glutamine. Confluent cultures are grown at 37° C. in an atmosphere containing 5% CO2. Cells are harvested using 2.5% Trypsin-EDTA, suspended in freeze media (FBS with 6% DMSO) at 10^7 cells/mL and aliquots are stored in liquid nitrogen. Just before assay, cells are thawed in DMEM, centrifuged, and resuspended in cAMP buffer.
The inhibition of PGE2-stimulated cAMP production by EP4 antagonists is measured using HTRF; (Cisbio catalog #62AM4PEB). […] The HTRF signal is detected using an EnVision® plate reader (Perkin-Elmer) to calculate the ratio of fluorescence at 665 nm to 620 nm. […] Results are expressed as the geometric mean±standard deviation; n=number of independent determinations. The standard deviation is calculated by the delta method, being SDlog Ki×geometric mean×ln(10).
Background: Changes in cAMP serve as a functional read-out for many G protein-coupled receptors.

Assay [4] has as its target T3, human EP4. Kind of assay: In vitro antagonist activity in human whole blood (reversal of PGE2 inhibition of LPS-induced TNFα production). More on the design: Blood is collected from normal volunteer donors into sodium heparin vacutainer tubes; from tissue; host or cells: human whole blood from volunteer donors. It is filed as cell-based. The conditions noted are these: 10 μg/mL LPS + 10 nM PGE2, 20-24 hours, geometric mean ± SD, n=6, read-out: IC50 in human blood TNFα induction assay. An excerpt: The inhibitory effects of PGE2 on LPS-induced TNFα production from macrophages/monocytes are believed to be mediated by EP4 receptors (See Murase, A., et al., Life Sciences, 82:226-232 (2008)). The ability of the compound of Example 8 to reverse the inhibitory effect of PGE2 on LPS-induced TNFα production in human whole blood is an indicia of functional activity.
Blood is collected from normal volunteer donors into sodium heparin vacutainer tubes. Donors have not taken NSAIDs or celecoxib within 48 hours or glucocorticoids within two weeks of the donation. All tubes/donor are pooled into 50 mL Falcon conical centrifuge tubes and 98 μL/well is distributed into 96-well tissue culture plates (Falcon 3072). […] TNFα levels in 2 μL plasma are quantified by a commercially available enzyme immunoassay (R&D Systems DY210), using Immulon 4 HBX plates (Thermo 3855) and 3,3′,5,5′ tetramethylbiphenyl-4,4′-diamine substrate (KPL 50-76-03). The plates are read at A450-A650 on a plate reader (Molecular Devices Versamax) using SOFTmaxPRO (v. 4.3.1) software. IC50s are calculated using Graphpad Prism (v. 4) nonlinear regression, sigmoidal dose response curve fitting. Results are expressed as the geometric mean±standard deviation; n=number of independent determinations The standard deviation is calculated by the delta method, being SDlog Ki×geometric mean×ln(10).

Assay [5] has as its target T3, human EP4. Kind of assay: In vitro binding to human EP4 ([3H]-PGE2 displacement, membranes). The conditions noted are these: HEK293 membranes, geometric mean ± SD, n = 6, read-out: hEP4, Ki. More on the design: expressed in transfected cells. As to the method:
as §1, §2

In assay [6] the target is T4, human EP2 (Homo sapiens, UniProt P43116).
T4 construct: expressed in transfected cells; host or cells: HEK293 (transient)
The assay is described as follows: In vitro binding to human EP2 ([3H]-PGE2 displacement, membranes). The settings on record: HEK293 membranes, n = 1, read-out: hEP2, Ki. How it is done:
as §1, §2

Structures can show the parent of a compound that is named as a salt.

T3 sequence (P35408 whole entry): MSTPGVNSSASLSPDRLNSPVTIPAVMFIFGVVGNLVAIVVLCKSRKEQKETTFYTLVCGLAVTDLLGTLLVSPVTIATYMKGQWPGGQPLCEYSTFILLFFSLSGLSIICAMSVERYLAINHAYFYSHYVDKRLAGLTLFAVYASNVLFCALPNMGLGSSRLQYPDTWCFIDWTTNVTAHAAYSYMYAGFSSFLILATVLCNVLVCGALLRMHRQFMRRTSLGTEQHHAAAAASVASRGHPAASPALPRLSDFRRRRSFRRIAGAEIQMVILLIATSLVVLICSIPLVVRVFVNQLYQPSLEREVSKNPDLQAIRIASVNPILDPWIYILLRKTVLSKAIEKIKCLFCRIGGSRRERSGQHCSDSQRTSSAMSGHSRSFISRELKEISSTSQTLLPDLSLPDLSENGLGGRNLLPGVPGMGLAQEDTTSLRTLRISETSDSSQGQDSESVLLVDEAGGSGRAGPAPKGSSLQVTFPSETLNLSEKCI
T4 sequence (P43116 whole entry): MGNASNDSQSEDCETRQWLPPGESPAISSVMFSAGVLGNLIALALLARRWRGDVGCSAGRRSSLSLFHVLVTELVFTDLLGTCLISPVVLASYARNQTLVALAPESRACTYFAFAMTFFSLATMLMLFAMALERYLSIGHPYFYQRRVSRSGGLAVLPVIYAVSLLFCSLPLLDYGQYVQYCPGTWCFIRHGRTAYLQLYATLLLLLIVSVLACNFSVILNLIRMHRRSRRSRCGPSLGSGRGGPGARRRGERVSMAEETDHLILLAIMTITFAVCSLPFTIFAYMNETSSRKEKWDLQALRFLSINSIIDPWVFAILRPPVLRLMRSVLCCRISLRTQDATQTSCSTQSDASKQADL

In the case of `C[C@H](NC(=O)[C@H]1CC(F)(F)CCN1CCOc1ccccc1)c1ccc(C(=O)O)cc1` [Example 8, 4-((1S)-1-(((2R)-1-(2-phenoxyethyl)-4,4-difluoropiperidin-2-carbonyl)amino)ethyl)benzoic acid hydrochloride], the Ki is above 12500 nM in assay [1], above 14800 nM in assay [2], 3.68 ± 3.32 nM in assay [5] and 956 nM in assay [6]. For the same compound, the IC50 in assay [3] was determined as 1.76 ± 1.51 nM; in assay [4], 78.2 ± 61 nM.
